The record followed here is publication PMC7984888, “Inhibitory Activity of Pyrroloisoxazolidine Derivatives against Chlamydia trachomatis” (BioMed Research International, 2021).

Like-named read-outs stand apart in the source and are kept apart here.

Test [1] concerns C. trachomatis L2. The experiment in a line: Withdrawal assay. Format: cell-based, Chlamydia trachomatis. Conditions: progeny EBs at 36 hpi, compared with 36 hpi sample. The method, then: HeLa cells seeded in 48-well plate were infected with C. trachomatis L2 at an MOI of 0.2 and simultaneously treated with 2, 8, or 32 μM of compound. At 2, 12, 24, and 36 hpi, infected cells were washed twice to remove residual inhibitor, and fresh medium was added. At 36 hpi, the production of infectious progeny EBs and percent inhibition data were determined as above.  Figure 6 Withdrawal assay. (a) HeLa cells infected with C. trachomatis L2 were simultaneously treated with 2, 8, or 32 μM individual compound. The compound was removed at 2, 12, 24, or 36 hpi, and the production of progeny EBs was determined at 36 hpi. (b–d) Percent inhibition of progeny EBs was calculated based on data in compound-treated samples relative to DMSO-treated control. Data are presented as mean ± SD of three independent assays. ∗p < 0.05, ∗∗p < 0.01, compared with each 36 hpi positive control sample by Student's t-tests.

The test system of test [2] is C. trachomatis L2. The experiment in a line: Inclusion body immunofluorescence staining. Type of test: cell-based, Chlamydia trachomatis. Conditions: for Inclusions at the highest concentration: 32 μM, C. trachomatis L2, HeLa cells, 36 hpi; for Formation (number) and growth (size) of C. trachomatis L2 inclusions: HeLa cells, MOI 0.2, 36 hpi, compared with 0.5% DMSO. The method, then:
Cell monolayers seeded onto coverslips in a 24-well plate were infected with C. trachomatis at a multiplicity of infection (MOI) of 0.2 inclusion-forming units (IFU) per cell. Unless noted, individual compound was added into culture medium at indicated concentrations simultaneously at the time of inoculation. 0.5% DMSO was used as negative control and 11.25 μM tetracycline (Sigma-Aldrich) as positive control. For C. trachomatis D, an additional centrifugation (900 × g at room temperature for 1 h) was applied to facilitate the infection. At 36 hours postinfection (hpi), infected cells were fixed by precooled methanol and then subjected to sequential staining processed with a primary antibody and a FITC-conjugated secondary antibody. Evans blue was used as cytoplasm counterstain. Images were shot by an Olympus IX51 fluorescence microscope. […] At the highest concentration of 32 μM, inclusions were few and tiny, analogous to the positive control tetracycline (final concentration, 11.25 μM). In addition, the reduction on the production of progeny EBs was consistent with that of the inclusion number and size (Figure 1(b)). The direct inhibitory effect was also analyzed for C. trachomatis D. Happened as expected, changes in inclusion size and number and the progeny production that response to both chemicals are highly similar to those observed for C. trachomatis L2, with slightly weaker effect (Figures 1(a) and 1(c)).  Figure 1 Inhibition effect of compounds 1 and 2 on C. trachomatis. HeLa cells were infected with C. trachomatis L2 or D at an MOI of 0.2 in the presence of 0.5% DMSO, 11.25 μM tetracycline, or various concentrations of individual compound. Cells were either fixed or lysed for determination of infectious progeny EBs at 36 hpi. (a) Representative immunofluorescence microscopy images (scale bar = 100 μm). Inclusions were stained with a polyclonal anti-MoPn antibody that cross-reacts with C. trachomatis L2 and D (green), and cells were counterstained with Evans blue (red). (b, c) The percent inhibition of production of infectious progeny EBs was calculated based on data in compound-treated samples relative to DMSO-treated control. Data are presented as mean ± SD of three independent assays.

For test [3], the system named is Chlamydia trachomatis serovar L2 (strain 434/Bu). The experiment in a line: Infectious progeny inhibition assay, C. trachomatis L2. Format: cell-based. The protocol:
Chlamydia trachomatis serovars D (strain UW-3/CX) and L2 (strain 434/Bu) were purchased from ATCC. HeLa cells purchased from ATCC were routinely cultured in DMEM supplemented with 10% heat-inactivated FBS (Sigma-Aldrich) and 10 μg/mL gentamicin at 37°C in a humidified atmosphere of 5% and were used for chlamydial propagation and cell culture experiments. EBs were purified by Renografin density gradient and stored in sucrose-phosphate-glutamate (SPG) buffer at -80°C [20]. A mouse polyclonal anti-MoPn (C. muridarum strain Nigg II) antibody, which was produced in our laboratory and cross-reacting with C. trachomatis D and L2, was used as a primary antibody for both stains detection.
Cell monolayers seeded onto coverslips in a 24-well plate were infected with C. trachomatis at a multiplicity of infection (MOI) of 0.2 inclusion-forming units (IFU) per cell. Unless noted, individual compound was added into culture medium at indicated concentrations simultaneously at the time of inoculation. 0.5% DMSO was used as negative control and 11.25 μM tetracycline (Sigma-Aldrich) as positive control. For C. trachomatis D, an additional centrifugation (900 × g at room temperature for 1 h) was applied to facilitate the infection. At 36 hours postinfection (hpi), infected cells were fixed by precooled methanol and then subjected to sequential staining processed with a primary antibody and a FITC-conjugated secondary antibody. Evans blue was used as cytoplasm counterstain. Images were shot by an Olympus IX51 fluorescence microscope.
Cells monolayers seeded in 48-well plate were infected and treated with chemicals as above. After incubation for 36 hours, infected cells were washed twice, scraped off, and lysed by sonication to release the infectious progeny EBs. Then the lysates were used to reinfect fresh cell monolayers grown in 96-well plate following 1 : 10 serial dilution. The inclusion counts were obtained by immunofluorescence staining as above to calculate the number of infectious progeny EBs in each sample. Percent inhibition was calculated based on EB counts in compound-treated samples relative to DMSO-treated negative control.
Data from the three independent experiments were presented as mean ± standard deviations (SD) and were subjected to pairwise Student's t-tests. p < 0.05 and p < 0.01 are considered statistically significant and statistically highly significant, respectively. The IC50 values, defined as the concentration of compound at which the generation of infectious progeny EBs was reduced by 50% relative to negative control, were calculated by nonlinear regression from percent inhibition data using the GraphPad Prism 5 software, and presented as mean (95% confidence interval).

The test system of test [4] is C. trachomatis L2. The experiment in a line: Later treatment assay. Format: cell-based, Chlamydia trachomatis. As to conditions: 2, 8 or 32 μM, progeny EBs at 36 hpi, compared with 0 hpi sample. The method, then:
HeLa cells seeded in 48-well plate were infected with C. trachomatis L2 at an MOI of 0.2 and were treated with 2, 8, or 32 μM of compound at 0, 2, 12, and 24 hpi. At 36 hpi, cells were collected, and the production of infectious progeny EBs was determined as described above. Percent inhibition was calculated based on progeny EB count in compound-treated samples relative to DMSO-treated negative control.  Figure 5 Later treatment assay. (a) HeLa cells infected with C. trachomatis L2 were treated with 2, 8, or 32 μM individual compound at 0, 2, 12, or 24 hpi. The production of progeny EBs was determined at 36 hpi. (b–d) Percent inhibition of progeny EBs was calculated based on data in compound-treated samples relative to DMSO-treated control. Data are presented as mean ± SD of three independent assays. ∗∗p < 0.01, compared with each 0 hpi positive control sample by Student's t-tests.

Setting [5] is: Chlamydia trachomatis, HeLa, generation of infectious progeny EBs in HeLa cells, MOI 0.2, 36 hpi, 1 to 32 μM, read-out: IC50 (μM) Mean (95% confidence interval) Ct L2.
The mark [6] stands for this setting: Chlamydia trachomatis, text statements over both strains (L2 and D), infectious progeny EBs, read-out: IC50 values, statement covering both C. trachomatis L2 and D.
The mark [7] stands for this setting: generation of infectious progeny EBs in HeLa cells, MOI 0.2, 36 hpi, 1 to 32 μM, read-out: IC50 (μM) Mean (95% confidence interval) Ct L2.

Take `c1ccc(C2C3CC(c4ccccc4)N(c4ccccc4)C3ON2c2ccccc2)cc1` (stereo not drawn) [Compound 1]: in the test on C. trachomatis L2 [1], the “Inhibitory effect when chemical was removed after 24 hpi” value is given as “relatively well preserved” and the “Inhibitory effect when chemical was removed before 12 hpi” value is reported as “significantly reduced”. Further, in the test on C. trachomatis L2 [2], the “Inclusions at the highest concentration” value is “few and tiny”; the “Formation (number) and growth (size) of C. trachomatis L2 inclusions” value was “inhibited the formation (number) and growth (size)”. Besides, the half-maximal inhibitory concentration (IC50) – broadly, the concentration that gives 50% inhibition – in test [3] (setting [5]) is less than 10 µM. The IC50 in test [3] (setting [6]) fell in the range of 7.25 to 9.73 µM. In addition, the IC50 in test [3] (setting [7]) came to 7.25 µM. In the test with C. trachomatis L2 [4], the “Antichlamydial activity when chemical was added at 24 hpi” value is recorded as “dramatically dropped” and the “Antichlamydial activity when chemical was added before 12 hpi” value is listed as “maintained”.

Turning to `Clc1ccc(N2C(c3ccccc3)CC3C(c4ccccc4)N(c4ccccc4)OC32)cc1` (stereo not drawn) [Compound 2], in the test with C. trachomatis L2 [1], the “Inhibitory effect when chemical was removed after 24 hpi” value was “relatively well preserved” and the “Inhibitory effect when chemical was removed before 12 hpi” value is “significantly reduced”. Further, in the test with C. trachomatis L2 [2], the “Inclusions at the highest concentration” value was “few and tiny”; the “Formation (number) and growth (size) of C. trachomatis L2 inclusions” value was “inhibited the formation (number) and growth (size)”. Also, in test [3] (setting [5]), the IC50 is less than 10 µM. The IC50 in test [3] (setting [6]) lay in the range of 7.25 to 9.73 µM. Also, in test [3] (setting [7]), the concentration for half-maximal inhibition (IC50) was 8.69 µM. In the test on C. trachomatis L2 [4], the “Antichlamydial activity when chemical was added at 24 hpi” value was “dramatically dropped” and the “Antichlamydial activity when chemical was added before 12 hpi” value was “maintained”.
